In patent US20140005163A1 (NOVARTIS AG, priority 2010, published 2014):

Experiments:
[1] = tested on: S6 Ribosomal Protein phosphorylation Ser235/236 in TSC1 null mouse embryo fibroblast (MEF) cells; assay: Reverse protein array assay, S6 Ribosomal Protein phosphorylation Ser235/236 in TSC1 null MEF cells; assay type: cell-based; conditions: 1 h, pS6 ribosomal protein Ser235/236, 60 minutes incubation, read-out: p-S6 IC50
In short: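 TSC1−/− MEFs, seeded and held ≥20 h at 37 °C/5% CO2, were exposed to 8-step serial compound dilutions (0.02% DMSO final; DMSO vehicle control) for 60 min at 37 °C. Cells were then lysed on ice for 10 min and lysates spotted onto reverse protein array chips.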

[2] = tested on: PKB Ser473 phosphorylation in Rat1-myr-HA-p110 alpha cells; assay: Reverse protein array assay, PKB Ser473 phosphorylation in Rat1-myr-p110 alpha cells; assay type: cell-based; conditions: 0.5 h, pAkt Ser473, 30 minutes compound incubation, read-out: p-PKB IC50
In short: (§1)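 Measured: PKB Ser473 phosphorylation by reverse protein array in Rat1 cells expressing myr-HA-p110 alpha, beta or delta, after 30 min compound treatment at 37 °C with 0.2% DMSO vehicle.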

PI3K delta = molecular target: T1, PI3K delta (Homo sapiens, UniProt O00329); assay: PI3K delta kinase assay (Kinase-Glo luminescence); assay type: biochemical
T1 construct: for the full-length p110-d subunit are generated and fused by overlapping PCR; p85(iSH2) fusion partner (see partner chain) (N); His tag (C); made in house; host or cells: baculovirus; Tn5 (Trichoplusia ni) or TiniPro insect cells
T1 sequence (O00329 with tags, fused parts or gaps limits assumed): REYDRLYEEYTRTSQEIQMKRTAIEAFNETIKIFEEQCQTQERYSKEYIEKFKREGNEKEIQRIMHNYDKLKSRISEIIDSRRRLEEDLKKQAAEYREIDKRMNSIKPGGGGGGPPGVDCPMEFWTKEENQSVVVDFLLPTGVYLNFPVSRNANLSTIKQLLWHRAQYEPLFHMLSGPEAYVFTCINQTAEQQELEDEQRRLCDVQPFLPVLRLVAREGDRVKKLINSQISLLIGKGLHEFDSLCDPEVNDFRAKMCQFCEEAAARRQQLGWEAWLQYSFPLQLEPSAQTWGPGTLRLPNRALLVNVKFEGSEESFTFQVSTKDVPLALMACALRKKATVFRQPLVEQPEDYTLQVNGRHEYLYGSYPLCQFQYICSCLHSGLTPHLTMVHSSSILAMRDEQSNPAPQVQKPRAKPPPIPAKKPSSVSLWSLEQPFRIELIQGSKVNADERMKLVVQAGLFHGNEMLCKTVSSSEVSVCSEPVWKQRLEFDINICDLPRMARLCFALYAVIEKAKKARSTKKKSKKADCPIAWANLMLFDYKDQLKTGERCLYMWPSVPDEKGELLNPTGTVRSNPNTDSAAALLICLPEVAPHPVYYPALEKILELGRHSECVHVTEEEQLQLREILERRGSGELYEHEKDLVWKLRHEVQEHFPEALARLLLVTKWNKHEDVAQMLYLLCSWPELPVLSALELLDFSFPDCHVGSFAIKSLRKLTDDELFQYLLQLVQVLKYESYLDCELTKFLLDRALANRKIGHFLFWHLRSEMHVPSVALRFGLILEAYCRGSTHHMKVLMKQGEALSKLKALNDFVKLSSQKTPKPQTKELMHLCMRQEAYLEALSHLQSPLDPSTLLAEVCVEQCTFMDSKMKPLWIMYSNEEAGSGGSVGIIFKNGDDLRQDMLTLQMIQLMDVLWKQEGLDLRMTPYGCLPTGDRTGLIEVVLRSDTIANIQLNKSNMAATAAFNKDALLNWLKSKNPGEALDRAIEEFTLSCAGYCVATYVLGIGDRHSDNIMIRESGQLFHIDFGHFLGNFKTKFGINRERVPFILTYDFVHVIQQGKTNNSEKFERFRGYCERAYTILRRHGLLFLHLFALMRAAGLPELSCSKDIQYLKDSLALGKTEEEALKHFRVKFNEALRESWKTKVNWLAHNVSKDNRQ
In short: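 ATP depletion was measured by Kinase-Glo luminescence after a 60-minute room-temperature reaction containing 1 μM ATP, 10 μg/mL PI and 10 nM His-tagged p85(iSH2)-linker-p110δ (BV-1060). Buffer: Tris pH 7.5, 3 mM MgCl2, 50 mM NaCl, 0.05% CHAPS, 1 mM DTT. IC50 values came from four-parameter fits over eight concentrations.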

[3] = tested on: PKB Ser473 phosphorylation in Rat1-myr-HA-p110 beta cells; assay: Reverse protein array assay, PKB Ser473 phosphorylation in Rat1-myr-p110 beta cells; assay type: cell-based; conditions: 0.5 h, pAkt Ser473, 30 minutes incubation, read-out: p-PKB IC50
In short: as §1

| SMILES | IC50 [2] [nM] | IC50 (PI3K delta) [nM] | IC50 [3] [nM] | IC50 [1] [nM] |
| --- | --- | --- | --- | --- |
| Cc1nn(C)cc1-n1c(=O)n(C)c2cnc3ccc(-c4cccc(OC(C)C)c4F)cc3c21 [Example 83, 1-(1,3-Dimethyl-1H-pyrazol-4-yl)-8-(2-fluoro-3-isopropoxy-phenyl)-3-methyl-1,3-dihydro-imidazo[4,5-c]quinolin-2-one] | 197 | 234 | 353 | 38 |
| CCNc1cc(-c2ccc3ncc4c(c3c2)n(-c2cn(C)nc2Cl)c(=O)n4C)cnc1OC [Example 90.1, 1-(3-Chloro-1-methyl-1H-pyrazol-4-yl)-8-(5-ethylamino-6-methoxy-pyridin-3-yl)-3-methyl-1,3-dihydro-imidazo[4,5-c]quinolin-2-one] | < 5 | 31 | < 5 | < 0.5 |
| CNc1ncc(-c2ccc3ncc4c(c3c2)n(-c2c(C)nn(C)c2C)c(=O)n4C)cn1 [Example 80.2] | 108 | 25 | 196 | 28 |
| Cc1nn(C)cc1-n1c(=O)n(C)c2cnc3ccc(-c4ccc5c(c4)CCN5C)cc3c21 [Example 50, 1-(1,3-Dimethyl-1H-pyrazol-4-yl)-3-methyl-8-(1-methyl-2,3-dihydro-1H-indol-5-yl)-1,3-dihydro-imidazo[4,5-c]quinolin-2-one] | 72 | 371 | 119 | 91 |
| Cc1nn(C)cc1-n1c(=O)n(C)c2cnc3ccc(-c4cnc(CO)c(Cl)c4)cc3c21 [Example 238, 8-(5-Chloro-6-hydroxymethyl-pyridin-3-yl)-1-(1,3-dimethyl-1H-pyrazol-4-yl)-3-methyl-1,3-dihydro-imidazo[4,5-c]quinolin-2-one] | 32 | 473 | 116 | 6 |
| Cc1c(-n2c(=O)n(C)c3cnc4ccc(-c5ccc(N(C)C)nc5)cc4c32)cnn1C [Example 4.4, 8-(6-Dimethylamino-pyridin-3-yl)-1-(1,5-dimethyl-1H-pyrazol-4-yl)-3-methyl-1,3-dihydro-imidazo[4,5-c]quinolin-2-one] | 53 | 89 | 110 | 10 |
| CCn1cc(-n2c(=O)n(C)c3cnc4ccc(-c5ccc(CO)nc5)cc4c32)c(C)n1 [Example 16.1, 1-(1-ethyl-3-methyl-1H-pyrazol-4-yl)-8-(6-hydroxymethyl-pyridin-3-yl)-3-methyl-1,3-dihydro-imidazo[4,5-c]quinolin-2-one] | 74 | 25 | 34 | 33 |
| COCCNC(=O)c1cc(-c2ccc3ncc4c(c3c2)n(-c2cn(C)nc2C)c(=O)n4C)cnc1N [Example 226, 2-Amino-5-[1-(1,3-dimethyl-1H-pyrazol-4-yl)-3-methyl-2-oxo-2,3-dihydro-1H-imidazo[4,5-c]quinolin-8-yl]-N-(2-methoxy-ethyl)-nicotinamide] | – | 21 | 457 | 7 |
| Cc1nn(CC(=O)N(C)C)c(C)c1-n1c(=O)n(C)c2cnc3ccc(-c4ccc(-n5cccn5)cc4)cc3c21 [Example 51.4, 2-{3,5-Dimethyl-4-[3-methyl-2-oxo-8-(4-pyrazol-1-yl-phenyl)-2,3-dihydro-imidazo[4,5-c]quinolin-1-yl]pyrazol-1-yl}-N,N-dimethyl-acetamide] | 14 | 598 | – | 11 |
| Cc1nn(CC(=O)N(C)C)c(C)c1-n1c(=O)n(C)c2cnc3ccc(-c4cnc(N)c(C(F)(F)F)c4)cc3c21 [Example 25.2, 2-{4-[8-(6-Amino-5-trifluoromethyl-pyridin-3-yl)-3-methyl-2-oxo-2,3-dihydro-imidazo[4,5-c]quinolin-1-yl]-3,5-dimethyl-pyrazol-1-yl}-N,N-dimethyl-acetamide] | 90 | 32 | – | 6 |
| COc1ccc(-c2ccc3ncc4c(c3c2)n(-c2ccnn2C)c(=O)n4C)cn1 [Example 2.2, 8-(6-Methoxy-pyridin-3-yl)-3-methyl-1-(2-methyl-2H-pyrazol-3-yl)-1,3-dihydro-imidazo[4,5-c]quinolin-2-one] | 159 | 56 | 553 | – |

Stronger by IC50 (PI3K delta), values ahead:

| IC50 [2] [nM] | IC50 (PI3K delta) [nM] | IC50 [3] [nM] | SMILES | IC50 [1] [nM] |
| --- | --- | --- | --- | --- |
| 40 | 10 | 57 | [2H]C([2H])([2H])Nc1ncc(-c2ccc3ncc4c(c3c2)n(-c2c(C)nn(C)c2C)c(=O)n4C)cc1C(F)(F)F [Example 143, 3-Methyl-8-(6-trideuteromethylamino-5-trifluoromethyl-pyridin-3-yl)-1-(1,3,5-trimethyl-1H-pyrazol-4-yl)-1,3-dihydro-imidazo[4,5-c]quinolin-2-one] | 9 |
| < 5 | 5 | < 5 | CNc1ccc(-c2ccc3ncc4c(c3c2)n(-c2cn(C)nc2Cl)c(=O)n4C)cn1 [Example 118.5, 1-(3-Chloro-1-methyl-1H-pyrazol-4-yl)-3-methyl-8-(6-methylamino-pyridin-3-yl)-1,3-dihydro-imidazo[4,5-c]quinolin-2-one] | < 0.5 |
| < 5 | 10 | < 5 | COc1ncc(-c2ccc3ncc4c(c3c2)n(-c2cn(C)nc2Cl)c(=O)n4C)cc1CO [Example 200, 1-(3-Chloro-1-methyl-1H-pyrazol-4-yl)-8-(5-hydroxymethyl-6-methoxy-pyridin-3-yl)-3-methyl-1,3-dihydro-imidazo[4,5-c]quinolin-2-one] | < 0.5 |
| 108 | 19 | 161 | Cc1nn(C)cc1-n1c(=O)n(C)c2cnc3ccc(-c4cncc(C(C)O)c4)cc3c21 (racemic) [Example 217, (rac)-1-(1,3-Dimethyl-1H-pyrazol-4-yl)-8-[5-(1-hydroxy-ethyl)-pyridin-3-yl]-3-methyl-1,3-dihydro-imidazo[4,5-c]quinolin-2-one] | 10 |
| 172 | 10 | 428 | CNc1ncc(-c2ccc3ncc4c(c3c2)n(-c2c(C)noc2C)c(=O)n4C)cc1Cl [Example 146.6, 8-(5-Chloro-6-methylamino-pyridin-3-yl)-1-(3,5-dimethyl-isoxazol-4-yl)-3-methyl-1,3-dihydro-imidazo[4,5-c]quinolin-2-one] | 278 |
| 206 | 7 | 383 | Cc1ncc(-c2ccc3ncc4c(c3c2)n(-c2cn(C)nc2C)c(=O)n4C)cc1N(C)S(C)(=O)=O [Example 75, N-{5-[1-(1,3-Dimethyl-1H-pyrazol-4-yl)-3-methyl-2-oxo-2,3-dihydro-1H-imidazo[4,5-c]quinolin-8-yl]-2-methyl-pyridin-3-yl}-N-methyl-methanesulfonamide] | – |
| < 5 | 10 | < 5 | CCNc1cc(-c2ccc3ncc4c(c3c2)n(-c2cn(C)nc2C)c(=O)n4C)cnc1C [Example 87.1, 1-(1,3-Dimethyl-1H-pyrazol-4-yl)-8-(5-ethylamino-6-methyl-pyridin-3-yl)-3-methyl-1,3-dihydro-imidazo[4,5-c]quinolin-2-one] | – |
| < 5 | 20 | < 5 | CCn1cc(-n2c(=O)n(C)c3cnc4ccc(-c5cncc(NC)c5)cc4c32)c(C)n1 [Example 180.1, 1-(1-Ethyl-3-methyl-1H-pyrazol-4-yl)-3-methyl-8-(5-methylamino-pyridin-3-yl)-1,3-dihydro-imidazo[4,5-c]quinolin-2-one] | – |
